Consider ten compounds from PubChem BioAssay (NCI).

SMILES strings stand for the structures.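 Interpolation was linear, between the two tested concentrations surrounding the appropriate level; five concentrations were tested over 48 hours in 96-well plates. TGI is the concentration that stops growth completely.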 Some results are limits rather than exact numbers.

Some test systems named below: M14 melanoma; NCI-H23 lung; SN12C renal; PC-3 prostate; MDA-MB-435; T-47D breast; MALME-3M melanoma; U251 CNS; SR leukemia; NCI-H522 lung.
Common to all, as to assay: NCI anticancer screen, dose series, 48 h

`COc1ccc2nc3ccc(OC)cc3c(S(=O)CCCl)c2c1` (stereo not given): the TGI with M14 melanoma is 15.3 µM; with NCI-H23 lung, 36.1 µM; in the test on SN12C renal, 3.72 µM; in the test on PC-3 prostate it was 23.4 µM; with MDA-MB-435, 17.1 µM; in the test on T-47D breast, 5.62 µM. In addition, the TGI is 3.57 µM in the test on MALME-3M melanoma, more than 52.2 µM in the test on U251 CNS, more than 22.7 µM in the test with SR leukemia and 3.23 µM with NCI-H522 lung.

In the case of `COc1cc(/C=C2\CCC(C)C3C2=NN(C(C)=O)C3c2cc(OC)c(OC)c(OC)c2)cc(OC)c1OC` (stereo not given), the TGI is more than 100 µM in the test on M14 melanoma; more than 100 µM with NCI-H23 lung; more than 100 µM in the test with SN12C renal; more than 100 µM in the test on PC-3 prostate; more than 100 µM in the test on MDA-MB-435; 67.8 µM in the test on T-47D breast. Moreover, the TGI in the test on MALME-3M melanoma is more than 100 µM; with U251 CNS, more than 100 µM; in the test with SR leukemia, more than 100 µM; in the test with NCI-H522 lung, 22.2 µM.

`COc1ccc(C(C)NNC(=O)c2ccncc2)c(OC)c1` (stereo not given): the TGI with M14 melanoma, with NCI-H23 lung, with SN12C renal, in the test on PC-3 prostate, with MDA-MB-435 and with T-47D breast was more than 100 µM in each case. In addition, the TGI in the test on MALME-3M melanoma, in the test on U251 CNS, with SR leukemia and with NCI-H522 lung was more than 100 µM throughout.

Take `C[C@]12CC[C@H](O)CC1=CC[C@@H]1[C@@H]2CC[C@]2(C)C(=O)[C@@H](N3CCOCC3)C[C@@H]12`: the TGI in the test on M14 melanoma, in the test on NCI-H23 lung, in the test on SN12C renal, with PC-3 prostate, in the test on MDA-MB-435 and in the test on T-47D breast was more than 100 µM each time. Also, the TGI with MALME-3M melanoma, with U251 CNS, in the test with SR leukemia and in the test with NCI-H522 lung was more than 100 µM each time.

For the compound `O=c1[nH]c(-c2ccc3ccccc3c2)nc2ccccc12`, the TGI in the test on M14 melanoma, with NCI-H23 lung, in the test on SN12C renal, in the test with PC-3 prostate, with MDA-MB-435 and in the test on T-47D breast was more than 100 µM each time. Also, the TGI in the test with MALME-3M melanoma, in the test with U251 CNS, with SR leukemia and in the test with NCI-H522 lung was more than 100 µM throughout.

Consider `O=[N+]([O-])c1cc2oc(COc3ccccc3)nc2cc1Cl`, for which the TGI was 43.5 µM in the test with M14 melanoma; 40.8 µM in the test on NCI-H23 lung; 65.1 µM with SN12C renal; more than 100 µM with PC-3 prostate; 52.4 µM in the test with MDA-MB-435; 81.4 µM in the test with T-47D breast. Besides, the TGI in the test on MALME-3M melanoma is 94.5 µM; in the test on U251 CNS, 52.5 µM; in the test on SR leukemia, more than 100 µM; with NCI-H522 lung, 46.3 µM.

Turning to `C=C1C[C@@H]2O[C@H]3[C@H]4[C@@H](C[C@@H](C)[C@@H](OC(C)=O)[C@H]42)[C@@H](C)CO[C@@]3(C)[C@H](OC(C)=O)C[C@H]1O`, the TGI with M14 melanoma, in the test with NCI-H23 lung, in the test with SN12C renal, in the test with PC-3 prostate, with MDA-MB-435 and in the test on T-47D breast was more than 100 µM each time. Also, the TGI in the test on MALME-3M melanoma, with U251 CNS, in the test with SR leukemia and in the test on NCI-H522 lung was more than 100 µM in each case.

Turning to `CNc1ccc(OC)cc1S(=O)(=O)c1ccccc1[N+](=O)[O-]`, the TGI in the test with M14 melanoma, in the test on NCI-H23 lung, with SN12C renal, in the test on PC-3 prostate, in the test on MDA-MB-435 and with T-47D breast was more than 100 µM throughout. Besides, the TGI in the test on MALME-3M melanoma, with U251 CNS, in the test on SR leukemia and in the test with NCI-H522 lung was more than 100 µM throughout.

Turning to `COc1ccc(CC2c3cc(Oc4cc(CC5c6cc(OC)c(OC)cc6CCN5C)ccc4O)c(OC)cc3CCN2C)cc1` (stereo not given), the TGI in the test on M14 melanoma was found to be 12.1 µM; with NCI-H23 lung, 15.4 µM; in the test with SN12C renal, 14.8 µM; in the test on PC-3 prostate, 11.4 µM; in the test with MDA-MB-435, 9.88 µM; in the test with T-47D breast it was 12.8 µM. The TGI with MALME-3M melanoma was found to be 17.6 µM; in the test with U251 CNS it was 11.9 µM; in the test with SR leukemia, 4.6 µM; in the test on NCI-H522 lung, 14.1 µM.

On to `COc1cc(C2c3cc4c(cc3OC(N3CCCC3)C2C)OCO4)cc(OC)c1O` (stereo not given), for which the TGI in the test on M14 melanoma was more than 51.1 µM; with NCI-H23 lung it was more than 82.1 µM; with SN12C renal it was more than 83.7 µM; in the test on PC-3 prostate it was more than 80.6 µM; in the test on MDA-MB-435, 15.2 µM; in the test on T-47D breast, more than 100 µM. Moreover, the TGI in the test with MALME-3M melanoma is more than 66 µM; in the test with U251 CNS it was 42.6 µM; with SR leukemia, more than 100 µM; in the test on NCI-H522 lung, 19.1 µM.
